Values quoted from earlier work, collected in article PMC12854702 (Synlett : accounts and rapid communications in synthetic …, 2025).

Legend:
human SLACK = conditions: Tl+-flux, HEK-293 cells stably expressing human SLACK
[1] = system: serotonin 5-HT2A receptor

Structure (SMILES): CN1CCN(C2=Nc3ccccc3Oc3ccc(Cl)cc32)CC1 [loxapine]
- SLACK activation Emax (human SLACK): 100%
- antagonism of dopamine D2 receptor (dopamine D2 receptor): potent antagonist
- antagonism of serotonin 5-HT2A receptor [1]: potent antagonist
- antagonism of histamine H1 receptor (histamine H1 receptor): potent antagonist
